Columns and labels:
PC-3 cells = assay: Inhibition of proliferation: CyQuant PC-3; assay type: cell-based; conditions: 72 h; PC-3 human prostate carcinoma cells, incubated with compounds for 3 days, CyQuant NF DNA dye
Protocol: (§1) • GFP-4E-BP1 substrate; Invitrogen order no. PV4759 • Lanthascreen Tb-anti-p4E-BP1 (pThr46) Antibody Kit; Invitrogen order no. PV4758 • FRAP1 (mTOR) kinase; Invitrogen order no. […] Preparation of Reagents: Note: Thaw and keep mTOR, the substrate, ATP, and the antibody on ice prior to making working dilutions. Working dilutions of these components can be kept at room temperature for short periods of time the day of use. 1. Add 2 ml of 5× Assay Buffer to 8 ml water to prepare 10 ml of 1× Assay Buffer. Note: The concentration of 1× Assay Buffer is 50 mM HEPES pH 7.5, 0.01% Polysorbate 20, 1 mM EGTA, and 10 mM MnCl2. 2. Prepare Antibody/EDTA Solution by first adding 2.75 n1 of Tb-anti p4E-BP1 Antibody to 2397 n1 of LanthaScreen™ TR-FRET Dilution Buffer. Then, add 100 n1 of 0.5 M EDTA. 3. Prepare 4× Substrate/Enzyme Solution by first adding 72 n1 of GFP-4E-BP1 (22 nM) to 926 n1 of 1× Assay Buffer. Then, add 1.6 n1 of mTOR (0.45 mg/mL). 4. Prepare ATP Solution by adding 3.2 n1 of 10 mM ATP to 1997 n1 of 1× Assay Buffer. Serial Dilution of Inhibitors (16 Point Curve): Note: It is recommended that inhibitors be serially diluted in DMSO, then diluted to a 4× working concentration with 1× Assay Buffer. The below procedure describes dilution of compounds in a 96-well format prior to transfer to a 384-well format for kinase assays. This procedure calls for dilution of the compounds in 2 adjacent columns of a 96-well plate, which upon transfer to a single column of a 384-well plate with an 8-channel pipette will align the samples in order of concentration. 1. Dispense 40 n1 of DMSO to two adjacent columns of a 96 well plate per compound (e.g. columns 1 and 2). 2. Add 10 n1 of inhibitor stock (10 mM) to the first well of the first column (A1) and mix. 3. Remove 10 n1 from A1 and transfer to the adjacent well in the next column (B1) and mix. 4. Remove 10 n1 from B1 and transfer to the next well in the first column (B2) and mix. 5. Repeat this dilution pattern through well H1 and leave the last well (H2) as DMSO only. 6. Remove 4 n1 of diluted compounds and add to 96 n1 of 1× Assay Buffer in a 96-well plate making 4× compound dilutions. Kinase Reaction: 1. Add 2.5 μl of 4× compound dilutions from the first column of the 96-well plate to every other well of column 1 of a 384-well plate with an 8-channel pipette. Repeat for columns 2 and 3. 2. Add 2.5 n1 of 4× compound dilutions from the second column of the 96-well plate to the empty wells of column 1 of the 384-well plate with an 8-channel pipette. Repeat for columns 2 and 3. Note: This procedure aligns the compound dilutions in order of concentration. 3. Add 2.5 n1 of 4× Enzyme/Substrate Solution to all columns 1-6. 4. Preincubate for 30 min. at RT (shaker). 5. Add 5 n1 of ATP Solution to all wells to start reactions. 6. Shake the assay plate on a plate shaker for 30 seconds. 7. Incubate the assay plate for one hour at room temperature (20-25° C.). Stop Step and Fluorescence Detection: 1. Add 10 n1 of Antibody/EDTA Solution to each well in columns 1-9. 2. Shake the assay plate on a plate shaker for 30 seconds. 3. Incubate the assay plate for one hour at room temperature (20-25° C.). 4. Measure the GFP (FRET) and terbium (reference) emission signals on a fluorescence plate reader (e.g. Perkin Elmer Envision). Data Analysis: 1. Calculate the emission ratio for each sample by dividing the GFP (FRET) signal by the terbium (reference) signal. 2. Plot the concentration of each compound versus the emission ratio. Determine the concentration of compound required to reach 50% of the maximum signal (IC50). Determination of IC50 values can be obtained by curve fitting (sigmoidal dose response, variable slope) using Prism software from GraphPad). Inhibition of Proliferation: CyQuant PC-3 Description:
The CyQuant NF assay is based on measurement of cellular DNA content via fluorescent dye binding. Because cellular DNA content is highly regulated, it is closely proportional to cell number. […]

FRAP1 (mTOR) kinase = target: T1, FRAP1 (mTOR) kinase (Homo sapiens, UniProt P42345); assay: Inhibition of mTOR-induced p-4E-BP1 phosphorylation (TR-FRET mTOR Activity Kit; Invitrogen); assay type: biochemical; conditions: 400 nM GFP-4E-BP1 substrate, ~150 ng/mL mTOR, one hour at room temperature
T1 construct: purchased Invitrogen PV4753
Description: Inhibition of mTOR-Induced p-4E-BP1 Phosphorylation (TR-FRET mTOR Activity Kit; Invitrogen)
as §1, with “Description: […]” for “Description:”

T1 sequence (P42345 1360-2549 limits assumed): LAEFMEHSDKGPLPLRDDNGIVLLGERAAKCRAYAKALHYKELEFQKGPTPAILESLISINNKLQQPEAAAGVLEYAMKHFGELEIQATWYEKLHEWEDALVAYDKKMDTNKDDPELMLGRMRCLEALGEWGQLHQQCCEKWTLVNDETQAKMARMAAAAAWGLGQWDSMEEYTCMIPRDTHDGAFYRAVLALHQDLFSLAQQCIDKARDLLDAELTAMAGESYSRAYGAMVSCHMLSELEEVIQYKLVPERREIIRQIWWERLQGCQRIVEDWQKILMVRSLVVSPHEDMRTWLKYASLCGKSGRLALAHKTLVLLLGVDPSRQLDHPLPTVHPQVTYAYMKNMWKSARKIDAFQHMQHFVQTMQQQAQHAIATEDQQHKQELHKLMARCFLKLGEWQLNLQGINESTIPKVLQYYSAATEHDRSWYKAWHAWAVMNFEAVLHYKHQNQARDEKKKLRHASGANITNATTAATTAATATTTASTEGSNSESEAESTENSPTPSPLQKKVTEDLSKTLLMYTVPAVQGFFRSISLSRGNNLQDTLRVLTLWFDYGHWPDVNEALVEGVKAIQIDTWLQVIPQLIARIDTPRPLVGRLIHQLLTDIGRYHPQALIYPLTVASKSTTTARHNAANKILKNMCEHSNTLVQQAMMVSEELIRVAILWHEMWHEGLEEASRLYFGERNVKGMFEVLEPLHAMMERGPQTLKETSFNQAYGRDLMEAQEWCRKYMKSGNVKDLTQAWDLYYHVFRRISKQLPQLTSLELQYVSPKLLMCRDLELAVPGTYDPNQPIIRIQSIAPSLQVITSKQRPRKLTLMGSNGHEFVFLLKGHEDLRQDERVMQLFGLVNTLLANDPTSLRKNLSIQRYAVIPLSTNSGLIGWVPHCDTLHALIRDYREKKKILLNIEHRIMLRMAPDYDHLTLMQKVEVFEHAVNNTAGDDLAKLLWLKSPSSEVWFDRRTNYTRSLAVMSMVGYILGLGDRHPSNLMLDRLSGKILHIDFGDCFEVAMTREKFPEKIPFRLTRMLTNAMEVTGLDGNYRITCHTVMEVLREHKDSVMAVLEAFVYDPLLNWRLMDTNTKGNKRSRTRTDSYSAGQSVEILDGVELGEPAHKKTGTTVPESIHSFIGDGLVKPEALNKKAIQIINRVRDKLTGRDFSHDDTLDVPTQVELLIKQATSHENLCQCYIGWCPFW

Row | Compound | EC50 (PC-3 cells) | IC50 (FRAP1 (mTOR) kinase)
1 | CCc1ccccc1-n1nc(-c2c[nH]cn2)c2c1-c1sc(NC(C)=O)nc1CCC2 [Example B-118, N-[1-(2-Ethyl-phenyl)-3-(1H-imidazol-4-yl)-1,4,5,6-tetrahydro-9-thia-1,2,7-triaza-cyclopenta[e]azulen-8-yl]-acetamide] | 55 nM | 17 nM
2 | COc1ccccc1-n1nc(-c2c[nH]cn2)c2c1-c1sc(NC(C)=O)nc1CCC2 [Example B-117] | 306 nM | 35 nM
3 | CC(=O)Nc1nc2c(s1)-c1c(c(-c3c[nH]cn3)nn1-c1ccc(C(=O)N(C)C)cc1Cl)CCC2 [Example B-114] | 382 nM | 4 nM
4 | CN(C)CC(=O)Nc1nc2c(s1)-c1c(c(-c3ccc(N)nc3)nn1-c1ccccc1F)CCC2 [Example E-17, N-[3-(6-Amino-pyridin-3-yl)-1-(2-fluoro-phenyl)-1,4,5,6-tetrahydro-9-thia-1,2,7-triaza-cyclopenta[e]azulen-8-yl]-2-dimethylamino-acetamide] | 171 nM | 65 nM
5 | CC(=O)Nc1nc2c(s1)-c1c(c(-c3ccc(N)nc3)nn1-c1ccccc1Br)CCC2 [Example B-63, N-[3-(6-Amino-pyridin-3-yl)-1-(2-bromo-phenyl)-1,4,5,6-tetrahydro-9-thia-1,2,7-triaza-cyclopenta[e]azulen-8-yl]-acetamide] | 143 nM | 27 nM
6 | Cc1ccccc1-n1nc(-c2ccc(N)nc2)c2c1-c1sc(NC(=O)N(C)C)nc1CCC2 [Example B-55] | 450 nM | 170 nM
7 | CNc1ccc(-c2nn(C(C)C)c3c2CCCc2nc(NC(C)=O)sc2-3)cn1 [Example B-05, N-[1-Isopropyl-3-(6-methylamino-pyridin-3-yl)-1,4,5,6-tetrahydro-9-thia-1,2,7-triaza-cyclopenta[e]azulen-8-yl]-acetamide] | 95 nM | 24 nM
8 | CCNc1ccc(-c2nn(-c3cccnc3)c3c2CCCc2nc(NC(C)=O)sc2-3)cn1 [Example B-127] | 137 nM | 83 nM
9 | CC(=O)Nc1nc2c(s1)-c1c(c(-c3c[nH]cn3)nn1-c1ccccc1C)CCC2 [Example B-112, N-[3-(1H-imidazol-4-yl)-1-o-tolyl-1,4,5,6-tetrahydro-9-thia-1,2,7-triaza-cyclopenta[e]azulen-8-yl]-acetamide] | 110 nM | 39 nM
10 | CC(C)n1nc(-c2ccc(N)nc2)c2c1-c1sc(NC(=O)CCCN(C)C)nc1CCC2 [Example B-135, N-[3-(6-Amino-pyridin-3-yl)-1-isopropyl-1,4,5,6-tetrahydro-9-thia-1,2,7-triaza-cyclopenta[e]azulen-8-yl]-4-dimethylamino-butyramide] | 79 nM | 44 nM
11 | CCNc1ccc(-c2nn(C3CCCOC3)c3c2CCCc2nc(NC(C)=O)sc2-3)cn1 (centres unmarked) [Example B-60] | 170 nM | 109 nM
12 | COCCC(=O)Nc1nc2c(s1)-c1c(c(-c3ccc(N)nc3)nn1-c1ccccc1F)CCC2 [Example E-15, N-[3-(6-Amino-pyridin-3-yl)-1-(2-fluoro-phenyl)-1,4,5,6-tetrahydro-9-thia-1,2,7-triaza-cyclopenta[e]azulen-8-yl]-3-methoxy-propionamide] | 138 nM | 47 nM
13 | CCNc1ccc(-c2nn(-c3ccccc3C)c3c2CCCc2nc(NC(=O)CNC)sc2-3)cn1 [Example B-69] | 229 nM | 145 nM
14 | CC(=O)Nc1nc2c(s1)-c1c(c(-c3c[nH]cn3)nn1-c1ccccc1Cl)CCC2 [Example B-116] | 148 nM | 29 nM
15 | CCNc1ccc(-c2nn(-c3ccccc3C)c3c2CCCc2nc(NC(C)=O)sc2-3)cn1 [Example B-07, N-[3-(6-Ethylamino-pyridin-3-yl)-1-o-tolyl-1,4,5,6-tetrahydro-9-thia-1,2,7-triaza-cyclopenta[e]azulen-8-yl]-acetamide] | 128 nM | 55 nM
16 | CC(=O)Nc1nc2c(s1)-c1c(c(-c3ccc(N)nc3)nn1-c1cccnc1C)CCC2 [Example B-138, N-[3-(6-Amino-pyridin-3-yl)-1-(2-methyl-pyridin-3-yl)-1,4,5,6-tetrahydro-9-thia-1,2,7-triaza-cyclopent[e]azulen-8-yl]acetamide] | 236 nM | 38 nM
